Assay [1] relates to HUVEC cells. Description: Growth of endothelial-derived primary cells (HUVEC). The assay is classed as cell-based, human. To be noted: within effective concentration range observed in VCaP, data not shown. How it is done:
(§1) TMPRSS2-ERG fusion positive ERG oncoprotein expressing prostate cancer cell line VCaP, was obtained from the American Tissue Culture Collection (ATCC; Manassas, Va.). The cells were grown in ATCC-recommended cell culture media under cell growth promoting conditions as recommended by the supplier (DMEM media; Gibco, Grand island, NY) supplemented with 10% fetal bovine serum (ATCC; Manassas, Va.). Normal primary endothelial cells, HUVEC-human umbilical vein endothelial cells, were also obtained from ATCC (Endothelial cell media; Cell biologics, Chicago, Ill.) supplemented with 10% FBS) as recommended by the supplier. The passage number of cell lines used in this study ranges from 1 to 6.
(§2) ERG protein is naturally expressed in endothelial cells.

Assay [2] relates to VCaP cells. Description: VCaP cell growth inhibition / cell viability (Cell Titer-Glo). The assay is classed as cell-based. The conditions noted are these: Homo sapiens, 96 h. (In general: In ATP-based viability assays light output follows the ATP content of the culture.)
Experimental: TMPRSS2-ERG fusion positive ERG oncoprotein expressing prostate cancer cell line VCaP, was obtained from the American Tissue Culture Collection (ATCC; Manassas, Va.). The cells were grown in ATCC-recommended cell culture media under cell growth promoting conditions as recommended by the supplier (DMEM media; Gibco, Grand island, NY) supplemented with 10% fetal bovine serum (ATCC; Manassas, Va.). […] The passage number of cell lines used in this study ranges from 1 to 6.
48 hours following plating of cells, the appropriate test compound is added to each well of the tissue culture dish at concentrations (0, 0.001, 0.005, 0.01, 0.05, 0.10, 0.15, 0.2, 0.25, 0.3, 0.35, 0.4) μM/per well). The medium was replenished every 24 hours with fresh growth medium containing the same concentration of the same test compound for indicated period of the cell growth inhibition assay for 96 hours. At the end of the treatment the cells were analyzed for viability by labeling for ATPase activity. Cell growth were calculated by measuring bioluminescence using Cell Glow ATPase assay with Cell Titer-Glo luminescent cell viability assay (Promega, Madison, Wis.) detected by the HT Envision System (PerkinElmer, Waltham, Mass.). The average viable cell numbers of each concentration in triplicates were used to calculate the IC50 of each compound with the GraphPad Prism 7 software. […]
The target of assay [3] is T1, RIOK2 (Homo sapiens, UniProt Q9BVS4).
T1 construct: endogenous in cells; host or cells: HUVEC primary endothelial cells (ATCC)
T1 sequence (Q9BVS4 whole entry): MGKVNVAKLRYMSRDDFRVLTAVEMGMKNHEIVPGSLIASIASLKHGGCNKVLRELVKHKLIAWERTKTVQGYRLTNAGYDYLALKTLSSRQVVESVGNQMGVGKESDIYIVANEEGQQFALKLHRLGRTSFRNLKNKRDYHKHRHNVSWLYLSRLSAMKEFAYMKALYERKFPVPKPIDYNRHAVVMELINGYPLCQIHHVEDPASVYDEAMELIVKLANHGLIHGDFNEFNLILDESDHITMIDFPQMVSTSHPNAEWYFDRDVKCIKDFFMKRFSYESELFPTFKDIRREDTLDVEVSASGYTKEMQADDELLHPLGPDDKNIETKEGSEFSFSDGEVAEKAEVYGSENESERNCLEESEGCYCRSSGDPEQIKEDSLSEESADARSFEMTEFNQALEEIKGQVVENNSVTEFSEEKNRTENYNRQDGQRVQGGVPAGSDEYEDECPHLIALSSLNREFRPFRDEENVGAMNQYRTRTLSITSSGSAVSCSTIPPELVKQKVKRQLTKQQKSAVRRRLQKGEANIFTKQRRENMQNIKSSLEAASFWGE
The assay is described as follows: RIOK2 levels in endothelial-derived primary cells (HUVEC). The format is cell-based. To be noted: within effective concentration range observed in VCaP, data not shown. How it is done: as §1, §2

pIC50: −log10 of the molar value.

The pIC50 is −log10 of the IC50, conventionally taken in molar units. A higher pIC50 goes with a small IC50. With `CN(C)c1ccc(N=Nc2ccccn2)c(O)c1.CS(=O)(=O)O` [Compound 2, 5-(dimethylamino)-2-(pyridin-2-yldiazenyl)phenol, methanesulfonic acid (1:1)], in assay [1], the “effect on growth of endothelial-derived primary cells” value is “did not effect”. The pIC50 in assay [2] is 7.05. In assay [3], the “effect on RIOK2 levels of endothelial-derived primary cells” value is “did not effect”.

The record behind these values is patent US20230382862A1, “ERG ONCOGENE INHIBITORS” (The Henry M. Jackson Foundation for the Advancement of …, priority 2020, published 2023).
